Numbered stars: 1 amine (or outer) side, 2 acyl side, 3 side chain; on linkers, the order of the positions; unused ones are H or OH. Square brackets hold non-standard residues; d marks the D form. Ends that are not written are not given here. Cys(Me) = S-methyl-cysteine, CSC[C@H](N[*:1])C(=O)[*:2]; Phe(4-Ac) = CC(=O)c1ccc(C[C@H](N)C(=O)O)cc1; AEA = NCCOCC(=O)O
Experiments:
[1] = target: T1, matrix metalloproteinase-2 (MMP-2) (Homo sapiens, UniProt P08253); experiment: Enzyme dependent fluorescence enhancement and color change: cleavage of FRET SDM by MMP-2; assay type: biochemical; details: 1 μM SDM
T1 sequence (P08253 110-660): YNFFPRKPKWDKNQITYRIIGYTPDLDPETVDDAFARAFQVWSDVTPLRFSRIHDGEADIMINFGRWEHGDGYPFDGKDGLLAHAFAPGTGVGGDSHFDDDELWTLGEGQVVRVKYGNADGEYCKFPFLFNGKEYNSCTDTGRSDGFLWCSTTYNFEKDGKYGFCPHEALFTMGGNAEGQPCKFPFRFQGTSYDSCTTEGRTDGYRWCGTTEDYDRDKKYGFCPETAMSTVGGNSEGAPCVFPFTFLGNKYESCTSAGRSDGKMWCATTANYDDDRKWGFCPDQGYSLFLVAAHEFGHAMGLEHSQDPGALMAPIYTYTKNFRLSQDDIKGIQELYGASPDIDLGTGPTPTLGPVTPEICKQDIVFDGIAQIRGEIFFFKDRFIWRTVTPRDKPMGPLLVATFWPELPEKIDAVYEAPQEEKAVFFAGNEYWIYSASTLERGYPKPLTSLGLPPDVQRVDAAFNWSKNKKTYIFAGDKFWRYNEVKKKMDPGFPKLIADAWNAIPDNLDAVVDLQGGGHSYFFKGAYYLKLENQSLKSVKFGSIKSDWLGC
Experimental: FIG. 2 exemplifies ratiometric fluorescence changes of selective delivery molecules. In this figure, SDM-9 was cleaved with 1 nM MMP-2 enzyme. The increase of donor (left panel) and decrease in acceptor (right panel) fluorescence is indicative of decreased FRET after peptide cleavage.
Selective delivery molecule 9 was dissolved in TCNB buffer (50 mM Tris, pH 7.5, with 10 mM calcium chloride, 150 mM sodium chloride, and 0.05% BRIJ 35) at room temperature at 1 μM. Fluorescence spectra were recorded on F-2500 fluorescence spectrometer. The Cy5 fluorescence donor was excited using 625 nm light and the emission was scanned from 660 to 800 nm. Peptide cleavage was initiated with addition of matrix metalloproteinase-2 (MMP-2) at a final concentration of 1 nM. The cleavage reaction was complete within 2 hour and the fluorescence spectra indicated FRET disruption and a large 8-fold increase the Cy5 donor emission and 2-fold decrease in the Cy7 emission. The actual intrinsic fluorescence decrease of Cy7 is larger however it is masked by the Cy5 long wavelength shoulder.

HT-1080 xenograft model = experiment: In vivo imaging assay for tumor contrast; design: species or system mouse
Experimental: HT-1080 xenograft model was generated as described in Example 14 and used to evaluate the ability of molecules to provide in vivo tumor fluorescence contrast compared to surrounding tissue. Fluorescent conjugates were tested in HT-1080 tumor-bearing mice once the tumors had reached 100-200 mm^3 in size (typically 1-2 weeks post-tumor cells implantation). Conscious HT-1080 tumor-bearing mice were restrained using a rotating tail injector (Cat. # RTI; Braintree Scientific, MA, USA) and dosed intravenously (tail vein) with the test compound at between 0.1 and 5 nanomoles per mouse in 100 uL saline solution. In preparation for imaging, mice were lightly anesthetized with a mixture of ketamine/xylazine (Cat. # K-113; Sigma, Aldrich, Mo., USA) given intraperitoneally (1 μL/gram body weight) to minimize movement.
Serial whole-body imaging (tumor included) was done using a whole-animal fluorescent visualization imaging system or Olympus stereo fluorescent microscope. The mice were positioned on their backs and imaging was performed from the top to image the ventral side of the animal. […] Contrast was calculated using the following equation: Contrast=(Fluorescence intensity of tumor−Fluorescence intensity of contralateral chest tissue)/Intensity of contralateral chest tissue).
Contrast greater than 0.4 in the whole animal is easily detected by eye in the whole animal image and is good contrast. […]

[2] = system: Murine 4T1 tumor model, metastatic cervical lymph nodes; experiment: In vivo detection of cancer metastases to lymph node, emission ratio contrast; design: species or system mouse; details: metastatic vs non-metastatic lymph nodes, peritumoral administration
MMP-9 = MMP-9 (Homo sapiens, UniProt P14780); experiment: Enzyme dependent fluorescence enhancement: cleavage of quenched SDM by MMP-9; assay type: biochemical; details: 1 μM SDM
Sequence of MMP-9 (P14780 94-707): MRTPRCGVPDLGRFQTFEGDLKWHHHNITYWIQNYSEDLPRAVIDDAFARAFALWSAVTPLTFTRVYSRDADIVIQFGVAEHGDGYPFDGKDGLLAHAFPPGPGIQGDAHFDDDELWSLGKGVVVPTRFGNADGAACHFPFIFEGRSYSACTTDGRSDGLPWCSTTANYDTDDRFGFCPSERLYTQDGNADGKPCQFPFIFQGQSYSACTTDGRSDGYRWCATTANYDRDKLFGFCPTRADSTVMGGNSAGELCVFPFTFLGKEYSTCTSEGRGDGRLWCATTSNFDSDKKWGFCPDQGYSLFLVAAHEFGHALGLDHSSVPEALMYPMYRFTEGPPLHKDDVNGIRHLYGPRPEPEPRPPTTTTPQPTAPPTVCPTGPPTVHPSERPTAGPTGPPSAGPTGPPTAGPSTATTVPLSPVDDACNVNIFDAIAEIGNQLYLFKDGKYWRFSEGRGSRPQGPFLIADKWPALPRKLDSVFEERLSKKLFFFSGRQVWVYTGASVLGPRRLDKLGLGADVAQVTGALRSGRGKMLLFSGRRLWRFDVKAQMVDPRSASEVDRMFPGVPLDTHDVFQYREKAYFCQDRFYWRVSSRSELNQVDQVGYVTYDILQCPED
Experimental: FIG. 3 exemplifies fluorescence enhancement of selective delivery molecules after protease cleavage. SDM-10 was cleaved with 1 nM MMP-9 enzyme in buffered saline. The Cy5 fluorescence increases >100 fold after peptide cleavage because the quencher dyes is no longer intramolecularly attached to Cy5 and it can no longer efficiently quench Cy5.
Selective delivery molecule 10 was dissolved in TCNB buffer (pH 7.5) at room temperature at 1 μM. Fluorescence spectra were recorded on F-2500 fluorescence spectrometer. Excitation of the Cy5 fluorescence donor was excited at 625 nm and the emission was measured at 669 nm. Peptide cleavage was initiated with addition of MMP-9 at a final concentration of 1 nM. The cleavage reaction was complete within 2 hour and the fluorescence was enhanced >100-fold upon protease cleavage, FIG. 3.

[3] = system: HT-1080 tumor homogenates; experiment: Fluorogenic response from tumor homogenates (gel electrophoresis); assay type: biochemical, mouse
Experimental: FIG. 4 exemplifies fluorescence enhancement of selective delivery molecule SDM-10 upon cleavage by tumor homogenates. Selective delivery molecule 10 (SDM-10) was cleaved with HT-1080 tumor homogenates. 1 nM MMP-9 or 10 uL tumor tissue homogenates (TH2 and TH3) were mixed with 1 uM […] in 100 uL buffer for 24 h at 37° C. GM6001 is a general broad spectrum inhibitor of MMPs. […] Uncleaved SDM-10 is nonfluorescent due to efficient quenching (second column from left).
HT1080 cells (Cat. # CCL-121; American Type Culture Collection, Va., USA) were grown under exponential growth conditions in humidified atmosphere of 5% CO2 in air at 37° C. until reaching 80-100% confluence before harvesting for mouse implantation. Each nude mouse was hand restrained and injected with 2×10^6 HT-1080 cells into the mammary fat pad using a 25-G needle. HT-1080 tumors were harvested when they had reached 100-200 mm^3 in size (typically 1-2 weeks post-tumor cells implantation).
HT-1080 tumors were homogenized using ultrasonic disruption. 1 nM MMP-9 or 10 μl, tumor tissue homogenates (TH2 and TH3) were mixed with 1 μM SDM-10 in 100 μL buffer for 24 h at 37° C. Selective delivery molecule 6 was used as a fluorescent control of similar size to intact SDM-10. The samples were loaded on a polyacrylamide gel and separated using electrophoresis. […] GM6001 is a general broad spectrum inhibitor of MMPs.

[4] = 1 nM MMP-2, TCNB buffer pH 7.5, excitation 625 nm

SDM-9: prepared analogously to SDM-25 from peptide P-3; Cy5 donor and Cy7 FRET acceptor ([dE][dE][dE][dE][dE][Phe(4-Ac)][AEA]PLG[Cys(Me)]AG[dR][dR][dR][dR][dR][dR][dR][dR][dC]-NH2; not fully specified (some residues, N-terminus))
decrease in Cy7 emission after cleavage [1, 4]: 2 fold
increase in Cy5 donor emission after cleavage [1, 4]: 8 fold
time to complete cleavage reaction ([1]; 1 nM MMP-2, room temperature): ≤ 2 h
Time to maximum contrast (HT-1080 xenograft model; HT-1080 xenograft, IV dosing): Fast (4 < fast < 12)
Maximum Contrast (HT-1080 xenograft model; tumor vs contralateral chest tissue fluorescence, IV 0.1-5 nanomoles per mouse, imaged 1-24 hours after injection): High (≥0.9 = high)
Peritumor Maximum Contrast [2]: Low (Low <20%)

SDM-10: prepared analogously to SDM-25 from peptide P-3; Cy5 fluorophore with dye quencher ([dE][dE][dE][dE][dE][Phe(4-Ac)][AEA]PLG[Cys(Me)]AG[dR][dR][dR][dR][dR][dR][dR][dR][dC]-NH2; numbers in words are those of the source; also: Cy5 fluorophore, quencher dye and mPEG carrier attached, sites not given here)
Cy5 fluorescence enhancement upon protease cleavage (MMP-9; 1 nM MMP-9, excitation 625 nm, emission 669 nm): > 100 fold
time to complete cleavage reaction (MMP-9; 1 nM MMP-9, room temperature): ≤ 2 h
cleavage by HT-1080 tumor homogenates ([3]; 1 μM SDM, 10 μL homogenate in 100 μL buffer, 24 h, 37° C.): cleaved and becomes highly fluorescent
fluorescence of intact, uncleaved form on gel ([3]; polyacrylamide gel): essentially non-fluorescent

CNC(=O)[C@H](Cc1c[nH]c2ccccc12)NC(=O)[C@@H](CC(=O)NO)CC(C)C [GM6001, reference compound]
effect on tumor homogenate cleavage of SDM-10 ([3]; MMP inhibitor added to HT-1080 homogenate with SDM-10): inhibits cleavage

— US10570178B2, “Selective delivery molecules and methods of use” (Avelas Biosciences, Inc., priority 2011, dated 2020)
